Measured values from patent publication EP4775577A1, “RAS INHIBITOR” (Tyligand Bioscience (Shanghai) Limited, priority 2023, dated 2025).

Assays:
[1] = system: KRAS G12D mutant AGS cells; test: Proliferation inhibition of AGS cells, CellTiter-Glo assay; assay type: cell-based, human; conditions: Homo sapiens, AGS, 72 h, 3 days, CTG; read-out: AGS IC50/nM
In short: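 AGS cells at 1500 cells/well in F12K + 10% FBS were exposed for 3 days at 37°C to nine 3-fold dilutions from 10 µM top concentration, in duplicate. Viability read by CellTiter-Glo luminescence; IC50 (nM) from dose-response-inhibition fitting.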

[2] = system: KRAS G12V mutant NCI-H727 cells; test: Proliferation inhibition of NCI-H727 cells, 3D CellTiter-Glo assay (Method B); assay type: cell-based, human; conditions: Homo sapiens, NCI-H727, 120 h, Method B; 3D culture with 0.65% methylcellulose, 5 days, CTG; read-out: NCI-H727 IC50/nM
In short: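 Cells grown in 3D medium (RPMI-1640, 10% FBS, 0.65% methylcellulose) overnight, then treated 5 days at 37 °C, 5% CO2 with 9 threefold dilutions from 10 µM top working concentration, duplicate wells. CellTiter-Glo luminescence read; IC50 (nM) fitted by dose-response-inhibition equation.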

in vivo = conditions: mouse, po, 20 mg/kg
Method: Male CD-1 mice, aged 6-8 weeks, were purchased from Zhejiang Vital River Laboratory Animal Co., Ltd.
For the PO administration group, compounds were formulated in 0.5% Tween 80 and 99.5% (0.5%MC (400cp)) vehicle or 0.5%MC (400cp) vehicle to a final concentration of 1 mg/mL or 2 mg/mL for each compound. The drug formulation was administered to CD-1 mice via gavage at a dose of 10 mL/kg. Blood samples were collected from the submandibular vein or other suitable means at 15 min, 30 min, 1 h, 2 h, 4 h, 6 h, 8 h, and 24 h after administration. The blood samples were centrifuged at low temperature for 5 minutes, and the plasma was collected and stored at -80°C for analysis.
10 µL of plasma sample was taken, 200 µL of methanol containing an internal standard as a precipitant was added to precipitate plasma proteins, the compounds to be tested in the plasma was extracted, centrifuged at low temperature, and 10 µL of the supernatant was injected. The drug concentration in blood plasma was analyzed by LC-MS/MS. The pharmacokinetic parameters were calculated using Winnonlin based on the blood drug concentration data at different time points.

[3] = system: human lung cancer cells NCI-H441 with KRAS-G12V mutation; test: Antitumor effect in NCI-H441 subcutaneous xenograft model; assay type: in vivo, NU/NU mice; conditions: 20 mpk, PO
Method: NCI-H441 cells were purchased from ATCC (catalog number: HTB-174). Male NU/NU mice were purchased from Jiangsu Jicui Yaokang Biotechnology Co., Ltd.
NCI-H441 cells were cultured in RPMI-1640 medium containing 10% FBS. Cells in the logarithmic growth phase were collected and resuspended in PBS to an appropriate concentration for subcutaneous tumor inoculation in mice. Experimental mice were subcutaneously inoculated in the right posterior back at a seeding density of 1×10^6 cells/mouse+Matrigel, with a seeding volume of 0.1 mL. When the average tumor volume reached ~150 mm^3, mice were randomly assigned to groups based on tumor size and body weight for drug administration. Drug administration began immediately after grouping, and the day of administration was considered day 0. The drug was administered to the mice twice daily via gavage at doses of 10 mpk, 20 mpk, 30 mpk, or a solvent control (0.5% Tween 80+99.5% of 0.5% MC (400 cp) or 0.5% MC (400 cp)). During the experiment, mouse body weight and tumor size were measured twice weekly. Tumor size was calculated using the formula: Tumor volume (mm^3)=0.5×(Tumor long diameter × Tumor short diameter^2). Relative tumor inhibition rate (TGI) (%): TGI%=[1-(Average tumor volume at the end of treatment in a given treatment group - Average tumor volume at the start of treatment in the treatment group) / (Average tumor volume at the end of treatment in the solvent control group - Average tumor volume at the start of treatment in the solvent control group)] × 100%.

[4] = system: human pancreatic cancer cells HPAC; conditions: po, 20 mg/kg, 408 h

Row | AUC(0-t) at 8 h (in vivo) [ng·h/mL] | SMILES | IC50 [1] [nM] | IC50 [2] [nM] | Tumor volume (mm^3) (day 16) ([3]; BID×17) | TGI% ([3]; BID×17, day 16) [%] | TGI% [4] [%] | Tumor volume (mm^3) (day 17) [4]
1 | 1520 | CCN1CC/C(=C\F)[C@](C)(COc2nc(N3Cc4c(COC)c(C(=O)N(C)C)nn4CC[C@@H]3C)c3cc(C(F)(F)F)c(-c4c(F)ccc5sc(N)c(C#N)c45)c(F)c3n2)C1 (single isomer, unassigned) [Example 232A] | < 1.5 | < 1.5 |  |  |  | 
2 |  | [2H]C([2H])([2H])N1CC/C(=C\F)[C@](C)(COc2nc(N3Cc4cc(C(=O)N(C)C)nn4CC[C@@H]3C)c3cc(C(F)(F)F)c(-c4c(F)ccc5sc(N)c(C#N)c45)c(F)c3n2)C1 (single isomer, unassigned) [Example 247A] | < 1.5 | < 1.5 | 162 | 97 | 98 | 161
